# From article PMC8395040 (International Journal of Molecular Sciences, 2021)
# Legend:
# HT29 = assay: MTT cytotoxicity assay, HT29; type: cell-based; conditions: Homo sapiens, HT-29, 72 h, MTT; for cytotoxicity at 50 µM: read-out: % Cytotoxicity (50 µM) HT29
# Protocol: (§1) Cytotoxicity assays were performed by using the MTT reduction method as described previously. Briefly, cancer cell lines were plated in flat-bottom 96-well plates at a cell concentration of 5 × 10^3 cells/well for the fastest growing lines, such as HEK293 and HT29 cells and 1 × 10^4 cells/well for more slowly growing lines, such as HCT116, H1975, BxPC-3, AsPC-1, B16-F10 and DAOY. Then, cells were incubated with the synthesised compounds at different concentrations (from 0.05 to 50 µM) in 200 µL with 10% FBS in RPMI 1640 or DMEM F12 culture medium at 37 °C for 72 h. Later, 10 µL of MTT were added at a final concentration of 0.5 mg/mL, incubated at 37 °C for 4 h, and then solubilised with 10% sodium dodecyl sulphate (SDS) in 0.1 mM HCl and incubated overnight at 37 °C. Formazan formation was measured at 570 nm in a multiwell plate reader (Cytation 5, Biotek Instruments, Winooski, VT, USA). Three independent biological replicates were performed.
# Daoy = assay: MTT cytotoxicity assay, Daoy; type: cell-based, human; conditions: Homo sapiens, Daoy; 50 µM, 72 h, MTT; read-out: % Cytotoxicity (50 µM) DAOY;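 note: viability read as formazan absorbance at 570 nm after MTT reduction, three independent biological replicates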
# H1975 = assay: MTT cytotoxicity assay, H1975; type: cell-based; conditions: Homo sapiens, NCI-H1975, 72 h, MTT; for cytotoxicity at 50 µM: read-out: % Cytotoxicity (50 µM) H1975
# Protocol: as §1
# [1] = MTT cytotoxicity assay, HEK293 control cells; type: cell-based, human; conditions: human, HEK293 cells; 50 µM, 72 h, MTT;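 note: Read-out is formazan absorbance at 570 nm from MTT reduction in 96-well plates, with three independent biological replicates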
# HCT116 = assay: MTT cytotoxicity assay, HCT116; type: cell-based; conditions: Homo sapiens, HCT-116, 72 h, MTT; for cytotoxicity at 50 µM: read-out: % Cytotoxicity (50 µM) HCT116; for IC50: 0.05–50 µM
# Protocol: as §1
# HEK293 = assay: MTT cytotoxicity assay, HEK293 control cells; type: cell-based, human; conditions: Homo sapiens, HEK293; MTT, 72 h, non-cancer cell line;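 note: Read-out is formazan absorbance at 570 nm from MTT reduction in 96-well plates, with three independent biological replicates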
# BxPC-3 = assay: MTT cytotoxicity assay, BxPC-3; type: cell-based; conditions: Homo sapiens, 72 h, 0.05–50 µM
# Protocol: as §1
# AsPC-1 = assay: MTT cytotoxicity assay, AsPC-1; type: cell-based; conditions: Homo sapiens, ASPC1, 72 h, 0.05–50 µM
# Protocol: as §1
Compound,cytotoxicity at 50 µM (HT29) [%],cytotoxicity at 50 µM (Daoy) [%],cytotoxicity at 50 µM (H1975) [%],"cytotoxicity at 72 h, 50 µM [1] [%]",cytotoxicity at 50 µM (HCT116) [%],melting point [°C],IC50 (HT29; 0.05–50 µM) [µM],IC50 (HEK293) [µM],IC50 (HCT116) [µM],IC50 (H1975; 0.05–50 µM) [µM],IC50 (BxPC-3) [µM],IC50 (AsPC-1) [µM]
"CCCCCCn1cnc2c(-c3ccc(OC(F)(F)F)cc3)nc(N3CCN(c4ccccc4)CC3)nc21 [Compound 4k, 9-Hexyl-2-(4-phenylpiperazin-1-yl)-6-(4-(trifluoromethoxy)phenyl)-9H-purine]",< 50,< 50,< 50,< 50,< 50,99 to 101,,,,,,
"CCCCCn1cnc2c(-c3ccc(OC(F)(F)F)cc3)nc(N3CCN(c4ccc(Cl)cc4)CC3)nc21 [Compound 4l, 9-Pentyl-2-(4-(4-clorophenyl)piperazin-1-yl)-6-(4-(trifluoromethoxy)phenyl)-9H-purine]",< 50,< 50,< 50,< 50,< 50,147 to 149,,,,,,
"CCCCCCn1cnc2c(-c3ccc(OC(F)(F)F)cc3)nc(N3CCN(c4ccc(Cl)cc4)CC3)nc21 [Compound 4m, 2-(4-(4-Chlorophenyl)piperazin-1-yl)-9-hexyl-6-(4-(trifluoromethoxy)phenyl)-9H-purine]",< 50,< 50,< 50,< 50,< 50,126 to 128,,,,,,
"CCCCCn1cnc2c(-c3ccc(OC(F)(F)F)cc3)nc(N3CCN(c4ccc([N+](=O)[O-])cc4)CC3)nc21 [Compound 4n, 9-Pentyl-2-(4-(4-nitrophenyl)piperazin-1-yl)-6-(4-(trifluoromethoxy)phenyl)-9H-purine]",< 50,< 50,< 50,< 50,< 50,180 to 181,,,,,,
"CCCCCCn1cnc2c(-c3ccc(OC(F)(F)F)cc3)nc(N3CCN(c4ccc([N+](=O)[O-])cc4)CC3)nc21 [Compound 4o, 9-Hexyl-2-(4-(4-nitrophenyl)piperazin-1-yl)-6-(4-(trifluoromethoxy)phenyl)-9H-purine]",< 50,< 50,< 50,< 50,< 50,142 to 144,,,,,,
"CCCCCn1cnc2c(-c3ccc(OC(F)(F)F)cc3)nc(N3CCN(c4ccc(OC)cc4)CC3)nc21 [Compound 4p, 9-Pentyl-2-(4-(4-methoxyphenyl)piperazin-1-yl)-6-(4-(trifluoromethoxy)phenyl)-9H-purine]",< 50,< 50,< 50,< 50,< 50,118 to 120,,,,,,
"CCCCCCn1cnc2c(-c3ccc(OC(F)(F)F)cc3)nc(N3CCN(c4ccc(OC)cc4)CC3)nc21 [Compound 4q, 9-Hexyl-2-(4-(4-methoxyphenyl)piperazin-1-yl)-6-(4-(trifluoromethoxy)phenyl)-9H-purine]",< 50,< 50,< 50,< 50,< 50,144 to 145,,,,,,
"O=c1[nH]cc(F)c(=O)[nH]1 [Compound 5-FU, 5-fluorouracil, reference compound]",66 ± 4.9,,,< 50,62 ± 1.3,,0.51 ± 0.06,0.83 ± 0.07,31 ± 0.3,,,
"COc1cc([C@@H]2c3cc4c(cc3[C@@H](O[C@@H]3O[C@@H]5CO[C@@H](C)O[C@H]5[C@H](O)[C@H]3O)[C@H]3COC(=O)[C@H]23)OCO4)cc(OC)c1O [Etoposide, reference compound]",,,60 ± 1.1,65 ± 0.7,90 ± 0.5,,,8.4 ± 0.7,9.8 ± 0.5,40 ± 0.2,,
"Nc1ccn([C@@H]2O[C@H](CO)[C@@H](O)C2(F)F)c(=O)n1 [Gemcitabine, reference compound]",,,,,,,,7.5 ± 0.6,,,0.2 ± 0.07,0.3 ± 0.09
